These results are taken from patent EP1004309A1, “ISRAPAFANT-CONTAINING WATER-BASE PREPARATIONS” (Senju Pharmaceutical Co., Ltd., priority 1997, dated 1998).

In brackets after ≈: the same amount, converted by molar mass. Entries after “also recorded” stand apart in the source; their conditions may differ. Bounds are passed on as bounds.

For data set [1], the system named is guinea pig active sensitization allergic conjunctivitis. In words: Suppressive effect against eosinophil infiltration into conjunctiva (late phase reaction). The class given is in vivo. As for the experimental part: (§1) Male Hartley guinea pigs weighing about 300 g purchased from Japan SLC. Ltd. were used. These animals had free access to a solid feed (γ ray irradiated feed LRC4, ORIENTAL YEAST CO., LTD.) and tap water, and were bred in a breeding chamber set to a temperature 23 ±2°C and humidity 55±15%.
(§2) Israpafant (manufactured by Yoshitomi Pharmaceutical Industries, Ltd.) was suspended in a vehicle (pH 5) shown below at a concentration of 1% to give an eye drop suspension. In addition, a suspension of israpafant in 0.5% CMC at 10 mg/ml was prepared for oral administration. As a control, physiological saline was used.
In the same manner as in 1), sensitization and induction by first challenge and second challenge were performed.
The drug was evaluated by removing the eye ball at 6 hours after the second challenge, preparing an optical microscopic specimen according to a conventional method, staining eosinophils by Luna staining, and counting and averaging the number of eosinophils infiltrated into conjunctiva with regard to each of 6 visible areas (one visible area being 0.04 mm^2) of the vicinity of conjunctival lymphoid tissue. The drug was administered in the same manner as in 1).
(§3) • physiological saline (control group) • 1.0% israpafant (instillation group) • 10 mg/kg israpafant p.o. (oral group) • 1 mg/kg mepyramine i.v. (intravenous injection group) • 1.0% israpafant + 1 mg/kg mepyramine i.v. (concurrent instillation group) • 10 mg/kg israpafant p.o.+1 mg/kg mepyramine i.v. (concurrent instillation group)

The test system is the same in data set [2]. In words: Suppressive effect against promotion of conjunctival vascular permeability (early phase reaction), dye-leakage. The class given is in vivo. As to conditions: 30 minutes after second challenge. As for the experimental part: as §1, §2
Guinea pigs were sensitized with a dispersion of 10 µg ovalbumin (OA) and 30 mg aluminum hydroxide gel by peritoneal administration. At 14 days after the sensitization, a 2.5% OA antigen solution was instilled into the both eyes by 10 µl to induce allergic conjunctivitis (first challenge). At 20 minutes after the last challenge, conjunctivitis signs were observed and the animals were grouped in such a manner that the severity of the condition was equalized from the degrees of chemosis, conjunctival injection and tearing.
The evaluation of a drug included the following steps. At 24 hours from the first challenge, 10 mg/kg Evans' blue was intravenously administered, and a 2.5% OA antigen solution was instilled into the both eyes by 10 µl to again induce conjunctivitis (the second challenge). Thirty minutes later, conjunctival dye-leakage part was excised, the parts of the both eyes were combined and the amount of the leaked dye was measured. The drug was instilled into the both eyes by 10 µl at 3, 2, 1 hour before the second challenge in the case of administration by instillation. In the case of an oral administration, 10 mg/kg was administered once at 1 hour before the second challenge. For suppression of histamine reaction, 1 mg/kg of mepyramine was intravenously administered one minute before.
as §3

In another data set the test system is rat PAF conjunctivitis. In words: Rat PAF conjunctivitis, conjunctival dye-leakage after eye drop. As to conditions: for inhibition: dye leakage; for amount of dye leakage: instillation 5 µl at 1, 2 hours before PAF, mean±standard error. The class given is in vivo. As for the experimental part:
Male Wistar rats weighing about 130 g purchased from Clea Japan, Inc. were used. They were bred at temperature 23±2°C and humidity 55±15%.
Israpafant was suspended at 0.03, 0.1, 0.3 and 1.0%. Physiological saline was used for the control group.
The formulation of the vehicle for an israpafant eye drop was as shown below, wherein the pH of the eye drop at each concentration was 7.0.
PAF diluted to 4 µg/ml was administered to the upper subconjunctiva of the rat by 25 µl and at the same time, 0.5% Evans' blue (0.5 ml) was intravenously administered. Thirty minutes later, the dye-leakage part of the conjunctiva was excised and the dye was extracted with formamide, after which absorbance (625 nm) was measured. The test drug was administered by instillation (5 µl) to the eye at 1, 2 hours before subconjunctival induction of PAF.

Data set [3] in a line: Dissolution test: solubility of israpafant in aqueous solutions containing additives, by HPLC. The data set is classed as physicochemical. As to conditions: for solubility: 0.1% phosphate buffer with dissolved additive, 25 °C, pH 7, aqueous with cosolvent or surfactant or cyclodextrin, thermodynamic from solid. On the procedure:
In 0.1% phosphate buffer (pH 7) were dissolved the additives shown in Table 2 in a proportion of 0.5% (0.5% and 4% in the sole case of polysorbate). In the same manner as above, israpafant was suspended and dissolved, after which the solubility of israpafant was measured by HPLC.
(§4) • column: YMC AM-302 (4.6×150 mm) • mobile phase: acetonitrile:0.1M ammonium acetate-87:13 • detection: UV 244 nm • column temperature:35°C • flow rate: 0.7 ml/min • internal standard:1,3,5-triphenylbenzene

A short description of a further data set: Solubility in water. The class given is physicochemical. As to conditions: water at 25°C.
A short description of data set [4]: Dissolution test: solubility of israpafant in buffers, by HPLC. The class given is physicochemical. The note with it: 0.1% acetate, phosphate and borate buffers, 25 °C, aqueous buffer, thermodynamic from solid; each buffer (pH 4, 5, 6, 7, 8 and 9); below detection limit by HPLC. As for the experimental part:
Israpafant (manufactured by Yoshitomi Pharmaceutical Industries, Ltd.) was suspended in 0.1% acetate buffer (pH 4, 5, 6), phosphate buffer (pH 6, 7, 8) and borate buffer (pH 8, 9) in a concentration of 0.1% (w/v%, hereinafter the same). Each suspension was filled in a glass ampoule by 5 ml and shaken at 25°C overnight (ca. 15 hours). After passing through a 0.45 µm membrane filter, the solubility of israpafant was measured by HPLC.
as §4

Data set [5] relates to guinea pig active sensitization allergic conjunctivitis. Briefly: Suppressive effect against immediate allergic conjunctivitis signs (early phase reaction), total score. The class given is in vivo. The note with it: 1% israpafant instillation 10 µl one eye at 2, 4, 8 hours after first challenge and 3, 2, 1 hour before second challenge; 20 minutes after second challenge; versus physiological saline control. On the procedure:
as §1, §2
In the same manner as in 1), sensitization and induction by the first challenge and the second challenge were performed. […]

On to `COc1ccc(CN(CCN(C)C)c2ccccn2)cc1` [mepyramine, reference compound], for which the “suppressive effect on eosinophil infiltration (in words)” value in data set [1] (1 mg/kg mepyramine i.v., 6 hours after second challenge) is given as “suppressive effect”. In addition, the dye-leakage in data set [2] (1 mg/kg mepyramine i.v. one minute before, control 34.5 µg) turned out to be 17.5 µg/two eye balls.
Regarding `Cc1nnc2n1-c1sc(CCc3ccc(CC(C)C)cc3)cc1C(c1ccccc1Cl)=NC2C` (stereo not drawn) [israpafant, 4-(2-Chlorophenyl)-2-[2-(4-isobutylphenyl)ethyl]-6,9-dimethyl-6H-thieno[3,2-f][1,2,4]triazolo[4,3-a][1,4]diazepine], the “suppressive effect on eosinophil infiltration (in words)” value in data set [1] (10 mg/kg israpafant p.o. (oral group), 6 hours after second challenge) is given as “no suppressive effect; also recorded: no effect was found; also recorded: no effect was observed”; in data set [1] (10 mg/kg israpafant p.o. + 1 mg/kg mepyramine i.v. (concurrent oral administration group), almost the same as mepyramine alone) it was “suppressive effect”; in data set [1] (1.0% israpafant instillation + 1 mg/kg mepyramine i.v. (concurrent instillation group), almost the same as mepyramine alone) it was “suppressive effect”. In data set [1] (1.0% israpafant instillation, 6 hours after second challenge, control 95.3), the eosinophil infiltration count was determined as 71.8 cell/0.04 mm^2. Moreover, the inhibition was 19.1% in the data set with rat PAF conjunctivitis (eye drop suspension 0.03% (dose 3 µg)), 29.6% in the data set with rat PAF conjunctivitis (eye drop suspension 0.1% (dose 10 µg)), 41.6% in the data set with rat PAF conjunctivitis (eye drop suspension 0.3% (dose 30 µg)) and 53.2% in the data set on rat PAF conjunctivitis (eye drop suspension 1.0% (dose 100 µg)). Also, the “amount of dye leakage” value in the data set on rat PAF conjunctivitis (eye drop suspension 0.03% (dose 3 µg), saline 40.03±2.57) worked out at 32.29±3.31 µg/site; in the data set with rat PAF conjunctivitis (eye drop suspension 0.1% (dose 10 µg), p<0.01) it was 28.17±1.42 µg/site; in the data set with rat PAF conjunctivitis (eye drop suspension 0.3% (dose 30 µg), p<0.01), 23.37±2.56 µg/site; in the data set with rat PAF conjunctivitis (eye drop suspension 1.0% (dose 100 µg), p<0.01), 18.74±2.20 µg/site. Moreover, the solubility came out at 99 µg/mL (≈ 202 µM) in data set [3] (0.5% BAK in 0.1% phosphate buffer (pH 7)); 47.3 µg/mL (≈ 96.7 µM) in data set [3] (0.5% HCO60 in 0.1% phosphate buffer (pH 7)); 0.6 µg/mL (≈ 1.23 µM) in data set [3] (0.5% HPMC in 0.1% phosphate buffer (pH 7)); 0.4 µg/mL (≈ 0.818 µM) in data set [3] (0.5% PVA(EG40) in 0.1% phosphate buffer (pH 7)); 1060 µg/mL (≈ 2160 µM) in data set [3] (0.5% SDS in 0.1% phosphate buffer (pH 7)); 29.5 µg/mL (≈ 60.3 µM) in data set [3] (0.5% Tyloxapol in 0.1% phosphate buffer (pH 7)). Besides, the results for the solubility in data set [3] (0.5% polysorbate 80 in 0.1% phosphate buffer (pH 7)), in data set [3] (polysorbate 80 (4% aq. solution) in 0.1% phosphate buffer (pH 7)) and in data set [4] were 66.9 µg/mL (≈ 137 µM), 581 µg/mL (≈ 1190 µM) and < 0.05 µg/mL, respectively. Further, the “dissolution (in words)” value in data set [3] (0.5% aqueous sodium dodecylsulfate solution) was “dissolved extremely well”; in data set [3] (4% aqueous polysorbate solution) it was “dissolved extremely well”; in data set [3] (aqueous solution containing a water soluble polymer or cyclodextrin), “did not dissolve”; in data set [3] (aqueous surfactant solution) it was “dissolved well”. Besides, the solubility in water result in “Solubility in water” is on record as “less than 0.01 w/v%”. The dye-leakage in data set [2] (10 mg/kg israpafant p.o. + 1 mg/kg mepyramine i.v. (oral concurrent group)) is reported as 10.1 µg/two eye balls; in data set [2] (10 mg/kg israpafant p.o. once 1 hour before second challenge, control 34.5 µg), 25.3 µg/two eye balls; in data set [2] (1.0% israpafant eye drop suspension, instillation 10 µl both eyes at 3, 2, 1 hour before second challenge, control 34.5 µg), 24.7 µg/two eye balls; in data set [2] (1.0% israpafant instillation + 1 mg/kg mepyramine i.v. (concurrent instillation group)), 11.0 µg/two eye balls. Further, the “total score of conjunctivitis signs” value in data set [5] is reported as “significant decrease”.
